Assay results: ChEMBL document CHEMBL1201862, “PubChem BioAssay data set” (2004)
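Step 1: Grow cells in 96-well plates. Step 2: Expose to compound for 48 hours at 5 concentrations. Step 3: Interpolate endpoints linearly; if unreached, use highest concentration. GI50 = concentration required for 50% inhibition of growth.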 Active and inactive are the calls of the source. No stated cut-off is given here; in the data, active = GI50 up to about 1.1 µM and inactive = higher.

Assays:
Test in all cases: inhibition of tumour cell growth, NCI panel, 48 h
T47D = test system: T47D
HCT-116 = test system: HCT-116
BT-549 = test system: BT-549
NCI-H226 = test system: NCI-H226
COLO 205 = test system: COLO 205
SN12C = test system: SN12C
K562 = test system: K562
CCRF-CEM = test system: CCRF-CEM
M14 = test system: M14
MDA-MB-231 = test system: MDA-MB-231
MOLT-4 = test system: MOLT-4
KM12 = test system: KM12
CAKI-1 = test system: CAKI-1
SF-268 = test system: SF-268
HCT-15 = test system: HCT-15
OVCAR-5 = test system: OVCAR-5
OVCAR-8 = test system: OVCAR-8
DLD-1 = test system: DLD-1
KM-20L2 = test system: KM-20L2
LXFL 529 = test system: LXFL 529

SMILES	GI50 (T47D)	GI50 (HCT-116)	GI50 (BT-549)	GI50 (NCI-H226)	GI50 (COLO 205)	GI50 (SN12C)	GI50 (K562)	GI50 (CCRF-CEM)	GI50 (M14)	GI50 (MDA-MB-231)	GI50 (MOLT-4)	GI50 (KM12)	GI50 (CAKI-1)	GI50 (SF-268)	GI50 (HCT-15) [µM]	GI50 (OVCAR-5)	GI50 (OVCAR-8)	GI50 (DLD-1)	GI50 (KM-20L2)	GI50 (LXFL 529)
COc1cc2c(c(N)c1OC)C(=O)/C(=C/c1cc(C)c(O)c(C)c1)C2	> 100 µM (inactive)	< 0.01 µM (active)	9.68 µM (inactive)	4.19 µM (inactive)	5.6 µM (inactive)	< 0.01 µM (active)	< 0.01 µM (active)	< 0.01 µM (active)	< 0.01 µM (active)	0.0141 µM (active)	< 0.01 µM (active)	< 0.01 µM (active)	4.25 µM (inactive)	< 0.01 µM (active)	< 0.01	0.693 µM (active)	< 0.01 µM (active)			
C=C1C(=O)C2=CC1CCC(=O)C1(C)CCC(OC(C)=O)C(C)(C)C1CC2O (stereo not given)	3.74 µM (inactive)	1.6 µM (inactive)	3.08 µM (inactive)	7.76 µM (inactive)	0.771 µM (active)	2.53 µM (inactive)	0.352 µM (active)	0.392 µM (active)	2.64 µM (inactive)	4.65 µM (inactive)	0.661 µM (active)	3.31 µM (inactive)	1.76 µM (inactive)	3.4 µM (inactive)	0.552	5.32 µM (inactive)	3.81 µM (inactive)			
Cn1ccnc1C(c1nccn1C)C(C)(C)[N+](=O)[O-]		> 100 µM (inactive)			> 100 µM (inactive)	> 100 µM (inactive)	> 100 µM (inactive)	> 100 µM (inactive)	> 100 µM (inactive)		> 100 µM (inactive)	> 100 µM (inactive)	> 100 µM (inactive)	> 100 µM (inactive)	> 100		> 100 µM (inactive)	> 100 µM (inactive)		
O=C(CCN1CCCCC1)C(=Cc1ccccc1)C(=O)CCN1CCCCC1		42.3 µM (inactive)		> 100 µM (inactive)	27.7 µM (inactive)	> 74.8 µM (inactive)	19.7 µM (inactive)	17.2 µM (inactive)	5.18 µM (inactive)		18.6 µM (inactive)	> 64.7 µM (inactive)	2.45 µM (inactive)	> 78.9 µM (inactive)	64.9	> 100 µM (inactive)	25.1 µM (inactive)	20 µM (inactive)	> 100 µM (inactive)	
C[s+]1c2ccccc2c2ccccc21		> 100 µM (inactive)		58.5 µM (inactive)	> 100 µM (inactive)	> 100 µM (inactive)	> 100 µM (inactive)	> 100 µM (inactive)	> 100 µM (inactive)		> 100 µM (inactive)	> 100 µM (inactive)		> 100 µM (inactive)	92	> 100 µM (inactive)	> 100 µM (inactive)		> 100 µM (inactive)	> 100 µM (inactive)
O=C(O)c1ccccc1/C=N\N=C1NCCCCN1	> 100 µM (inactive)	> 100 µM (inactive)	> 100 µM (inactive)	> 100 µM (inactive)	> 100 µM (inactive)	> 100 µM (inactive)	> 100 µM (inactive)	> 100 µM (inactive)	> 100 µM (inactive)	> 100 µM (inactive)	> 100 µM (inactive)	> 100 µM (inactive)	> 100 µM (inactive)	> 100 µM (inactive)	> 100	> 100 µM (inactive)	> 100 µM (inactive)			
O=C1c2ccccc2C(=O)N1CC#CCO		> 100 µM (inactive)		> 100 µM (inactive)		> 100 µM (inactive)	> 100 µM (inactive)	> 100 µM (inactive)	> 100 µM (inactive)		> 100 µM (inactive)	> 100 µM (inactive)	> 100 µM (inactive)	> 100 µM (inactive)	> 100	> 100 µM (inactive)	> 100 µM (inactive)			> 100 µM (inactive)
O=P1(N(CCCl)CCCl)Oc2c(Cl)cc(Cl)c(Cl)c2Cc2c(Cl)c(Cl)cc(Cl)c2O1	> 100 µM (inactive)	27.9 µM (inactive)	> 100 µM (inactive)	26.9 µM (inactive)	22.5 µM (inactive)	61.9 µM (inactive)	74 µM (inactive)	29.2 µM (inactive)	75.3 µM (inactive)	42.4 µM (inactive)	95.7 µM (inactive)	42 µM (inactive)	64.9 µM (inactive)	> 100 µM (inactive)	48	30.8 µM (inactive)	55.1 µM (inactive)			
CC1CC(=O)Nc2ccccc2N1C(=O)C1CC1 (stereo not given)	> 100 µM (inactive)	> 100 µM (inactive)	> 100 µM (inactive)	> 100 µM (inactive)	> 100 µM (inactive)	> 100 µM (inactive)	> 100 µM (inactive)	> 100 µM (inactive)	> 100 µM (inactive)	> 100 µM (inactive)	> 100 µM (inactive)	> 100 µM (inactive)	> 100 µM (inactive)	> 100 µM (inactive)	> 100	> 100 µM (inactive)	> 100 µM (inactive)			
CC1(C)O[C@@H](CCl)C[C@H](C#N)O1		> 100 µM (inactive)		97.1 µM (inactive)	> 100 µM (inactive)	> 100 µM (inactive)	> 100 µM (inactive)	> 100 µM (inactive)	> 100 µM (inactive)		> 100 µM (inactive)	> 100 µM (inactive)	> 100 µM (inactive)	> 100 µM (inactive)	> 100	> 100 µM (inactive)	> 100 µM (inactive)	> 100 µM (inactive)	> 100 µM (inactive)	
CC(C)(C)/N=C\N(C=C(c1ccccc1)c1ccccc1)C1CCCCC1		23.4 µM (inactive)			22.7 µM (inactive)	43.4 µM (inactive)	17.7 µM (inactive)	34.8 µM (inactive)				36.2 µM (inactive)	50.6 µM (inactive)	41.1 µM (inactive)	28.5	35.1 µM (inactive)	91.8 µM (inactive)	23.1 µM (inactive)	16.9 µM (inactive)	
O=C(NCCCNCCCCNCCCNC(=O)c1cc(-c2ccccc2)nc2ccccc12)c1cc(-c2ccccc2)nc2ccccc12	2.63 µM (inactive)	3.09 µM (inactive)	3.13 µM (inactive)	1.83 µM (inactive)	1.91 µM (inactive)	2.23 µM (inactive)	2.14 µM (inactive)	1.88 µM (inactive)	2.15 µM (inactive)	7.06 µM (inactive)	1.9 µM (inactive)	2.19 µM (inactive)	20.3 µM (inactive)	1.71 µM (inactive)	20.1	2.05 µM (inactive)	1.82 µM (inactive)			
CC(O)CNC(=O)C(C)Oc1ccc(OCC2CCCCC2)cc1 (stereo not given)		> 100 µM (inactive)		88.5 µM (inactive)		> 100 µM (inactive)	> 100 µM (inactive)	> 100 µM (inactive)	> 100 µM (inactive)		> 100 µM (inactive)	> 100 µM (inactive)		> 100 µM (inactive)	> 100		> 100 µM (inactive)			> 100 µM (inactive)
O=[N+]([O-])c1c(O)c2nonc2c2nn(-c3ccccc3)nc12	> 100 µM (inactive)	> 100 µM (inactive)	> 100 µM (inactive)	6.85 µM (inactive)	> 100 µM (inactive)	> 100 µM (inactive)	> 100 µM (inactive)	> 100 µM (inactive)	> 100 µM (inactive)	> 10 µM (inactive)	> 100 µM (inactive)	> 100 µM (inactive)	> 100 µM (inactive)	> 100 µM (inactive)	> 100	> 100 µM (inactive)	> 100 µM (inactive)			
CC(C)(C)[Si](Nc1ccccc1)(c1ccccc1)c1ccccc1		7.91 µM (inactive)		15.3 µM (inactive)	15.3 µM (inactive)	15 µM (inactive)	8.26 µM (inactive)	16 µM (inactive)	14 µM (inactive)		10.1 µM (inactive)	13.9 µM (inactive)		13.5 µM (inactive)	15		17.7 µM (inactive)		15.8 µM (inactive)	
O=C(NCCCC/N=c1/cccccc1NCCCCNC(=O)OCc1ccccc1)OCc1ccccc1		9.98 µM (inactive)		16.4 µM (inactive)		18.8 µM (inactive)	10.1 µM (inactive)	16.6 µM (inactive)	14.5 µM (inactive)		15.3 µM (inactive)	17.9 µM (inactive)	20.9 µM (inactive)	25.6 µM (inactive)	8.05	17.1 µM (inactive)	18.9 µM (inactive)	12.6 µM (inactive)	11 µM (inactive)	
CCCC[C@H]1C(=O)O[C@H](C)[C@H](NC(=O)c2cccc(NC=O)c2O)C(=O)O[C@@H](C)[C@@H]1OC(=O)CC(C)C [ANTIMYCIN A3]	2.19 µM (inactive)	< 0.01 µM (active)	1.68 µM (inactive)	0.883 µM (active)	3.34 µM (inactive)	14.2 µM (inactive)	< 0.0123 µM (active)	< 0.0229 µM (active)	14.9 µM (inactive)	4.37 µM (inactive)	< 0.01 µM (active)	0.444 µM (active)	11.9 µM (inactive)	6.56 µM (inactive)	< 0.01	17 µM (inactive)	2.05 µM (inactive)			
O=C(O)Cc1ccccc1 [PHENYLACETIC ACID]	> 100 µM (inactive)	> 100 µM (inactive)	> 1000 µM (inactive)	> 100 µM (inactive)	> 100 µM (inactive)	> 100 µM (inactive)	> 100 µM (inactive)	> 100 µM (inactive)	> 100 µM (inactive)	> 100 µM (inactive)	> 100 µM (inactive)	> 100 µM (inactive)	> 100 µM (inactive)	> 100 µM (inactive)	> 100	> 100 µM (inactive)	> 100 µM (inactive)			
